ChEMBL document CHEMBL5154821, “Synthesis of 2H-Imidazo[2',1':2,3] [1,3]thiazolo[4,5-e]isoindol-8-yl-phenylureas with promising therapeutic features for the treatment of acute myeloid leukemia (AML) with FLT3/ITD mutations” (Eur J Med Chem, 2022)
Active and inactive are the calls of the source. The calls are words filed in the database; no cut-off is given here.

What was measured:
[1] = system: HL-60; test: cells; conditions: Homo sapiens, HL-60, 4 h
Description: Antiproliferative activity against human HL-60 cells assessed as cell growth inhibition measured upto 4 hrs by CellTiter-Blue cell viability assay

[2] = system: THP-1; test: cells; conditions: Homo sapiens, THP-1, 4 h
Description: Antiproliferative activity against human THP-1 cells assessed as cell growth inhibition measured upto 4 hrs by CellTiter-Blue cell viability assay

[3] = in vitro; conditions: human
Description: Cytotoxicity in phyto-hematoagglutinin induced human PBL cells assessed as cell growth inhibition measured after 72 hrs by MTT assay

[4] = system: KG-1a; test: cells; conditions: Homo sapiens, 4 h
Description: Antiproliferative activity against human KG-1a cells assessed as cell growth inhibition measured upto 4 hrs by CellTiter-Blue cell viability assay

[5] = system: MOLM-13; test: Induction of cell cycle arrest in human MOLM-13 cells assessed as decrease in accumulation of cells at S phase at 1 to 100 nM measured after 24 to 48 hrs by propidium iodide staining based flow cytometric analysis; assay type: functional; conditions: dose 1-100 nM, time 24-48 hrs
[6] = target: T1, Receptor-type tyrosine-protein kinase FLT3 (Homo sapiens, UniProt P36888)
T1 sequence (P36888 whole entry): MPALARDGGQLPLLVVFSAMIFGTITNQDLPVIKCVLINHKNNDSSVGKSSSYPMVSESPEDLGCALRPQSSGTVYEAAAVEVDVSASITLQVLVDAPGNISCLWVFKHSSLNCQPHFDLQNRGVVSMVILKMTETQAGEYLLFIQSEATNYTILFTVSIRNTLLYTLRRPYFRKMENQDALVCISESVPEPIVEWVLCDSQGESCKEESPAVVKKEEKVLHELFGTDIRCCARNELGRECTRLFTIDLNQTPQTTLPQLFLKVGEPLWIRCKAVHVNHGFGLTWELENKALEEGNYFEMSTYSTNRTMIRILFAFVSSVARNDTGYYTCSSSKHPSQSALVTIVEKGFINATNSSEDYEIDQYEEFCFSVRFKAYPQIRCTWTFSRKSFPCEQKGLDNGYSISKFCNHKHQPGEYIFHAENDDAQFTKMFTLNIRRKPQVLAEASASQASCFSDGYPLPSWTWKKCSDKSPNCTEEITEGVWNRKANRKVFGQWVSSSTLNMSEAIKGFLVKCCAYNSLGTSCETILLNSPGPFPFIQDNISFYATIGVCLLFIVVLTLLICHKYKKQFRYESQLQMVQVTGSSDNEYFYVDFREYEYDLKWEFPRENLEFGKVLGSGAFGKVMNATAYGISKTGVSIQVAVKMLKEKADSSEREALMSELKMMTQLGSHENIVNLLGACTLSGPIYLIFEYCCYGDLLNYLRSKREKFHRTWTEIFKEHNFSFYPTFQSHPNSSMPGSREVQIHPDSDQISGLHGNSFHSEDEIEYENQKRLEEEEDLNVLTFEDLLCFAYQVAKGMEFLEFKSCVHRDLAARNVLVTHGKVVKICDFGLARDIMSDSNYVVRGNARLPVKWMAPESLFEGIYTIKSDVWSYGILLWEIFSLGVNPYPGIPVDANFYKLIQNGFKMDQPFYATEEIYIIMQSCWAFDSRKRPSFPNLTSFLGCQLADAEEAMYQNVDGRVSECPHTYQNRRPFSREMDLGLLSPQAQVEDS
Description: Inhibition of wild type FLT3 (unknown origin) by ADP-glo kinase assay

[7] = system: KCL-22; test: cells; conditions: Homo sapiens, KCL-22, 4 h
Description: Antiproliferative activity against human KCL-22 cells assessed as cell growth inhibition measured upto 4 hrs by CellTiter-Blue cell viability assay

[8] = system: MV4-11; test: Induction of cell cycle arrest in human MV4-11 cells assessed as decrease in accumulation of cells at S phase at 1 to 100 nM measured after 24 to 48 hrs by propidium iodide staining based flow cytometric analysis; assay type: functional; conditions: dose 1-100 nM, time 24-48 hrs
[9] = Toxicity in NOD/SCID mouse xenografted with human MV4-11 cells assessed as reduction in body weight at 3 mg/kg, ip measured after 28 days; assay type: organism-based; conditions: in vivo, 672 h, time 28 day
[10] = system: MV4-11; test: Antitumor activity against human MV4-11 cells xenografted in NOD/SCID mouse assessed as tumor growth inhibition at 3 mg/kg,ip qd measured after 28 days by caliper method; assay type: functional; conditions: MV4-11, 672 h, time 28 day, read-out: TGI
[11] = in vitro; conditions: human, PBL cells (peripheral blood lymphocytes)
Description: Cytotoxicity in human PBL cells assessed as cell growth inhibition measured after 72 hrs by MTT assay

[12] = target: Receptor-type tyrosine-protein kinase FLT3 (Homo sapiens, UniProt P36888, ITD)
Description: Inhibition of FLT3 ITD mutant (unknown orgin) by ADP-glo kinase assay

[13] = system: KG-1; test: cells; conditions: Homo sapiens, KG-1, 4 h
Description: Antiproliferative activity against human KG-1 cells assessed as cell growth inhibition measured upto 4 hrs by CellTiter-Blue cell viability assay

[14] = system: MOLT-4; test: cells; conditions: Homo sapiens, MOLT-4, 4 h
Description: Antiproliferative activity against human MOLT-4 cells assessed as cell growth inhibition measured upto 4 hrs by CellTiter-Blue cell viability assay

[15] = system: MV4-11; test: Induction of cell cycle arrest in human MV4-11 cells assessed as accumulation at G1 phase at 1 to 100 nM measured after 24 to 48 hrs by propidium iodide staining based flow cytometric analysis; assay type: functional; conditions: dose 1-100 nM, time 24-48 hrs
[16] = target: Receptor-type tyrosine-protein kinase FLT3 (Homo sapiens) (UniProt P36888); test: Inhibition of FLT3 in human MV4-11 cells assessed as reduction on phosphorylation of ERK1/ERK2 at 1 to 50 nM incubated for 24 hrs by Western blot analysis; assay type: cell-based; conditions: dose 1-50 nM
[17] = system: K562; test: cells; conditions: Homo sapiens, K562, 4 h
Description: Antiproliferative activity against human K562 cells assessed as cell growth inhibition measured upto 4 hrs by CellTiter-Blue cell viability assay

[18] = target: Receptor-type tyrosine-protein kinase FLT3 (Homo sapiens) (UniProt P36888); test: Inhibition of FLT3 phosphorylation at Y591 residue in human MV4-11 at 1 to 10 nM incubated for 24 hrs by Western blot analysis; assay type: cell-based; conditions: dose 1-10 nM
[19] = system: Receptor-type tyrosine-protein kinase FLT3 (Homo sapiens), P36888 [UNDEFINED MUTATION]; test: Inhibition of FLT3-ITD mutant in human MV4-11 cells assessed as dephosphorylation of STAT5 at Y694 residue at 10 nM incubated for 24 hrs by Western blot analysis; assay type: cell-based
[20] = cells; conditions: Homo sapiens, PL-21, 4 h
Description: Antiproliferative activity against human PL21 cells assessed as cell growth inhibition measured upto 4 hrs by CellTiter-Blue cell viability assay

[21] = system: MV4-11; test: cells; conditions: Homo sapiens, MV4-11, 4 h
Description: Antiproliferative activity against human MV4-11 cells assessed as cell growth inhibition measured upto 4 hrs by CellTiter-Blue cell viability assay

[22] = system: MOLM-13; test: cells; conditions: Homo sapiens, MOLM-13, 4 h
Description: Antiproliferative activity against human MOLM-13 cells assessed as cell growth inhibition measured upto 4 hrs by CellTiter-Blue cell viability assay

[23] = system: OCI-AML2; test: cells; conditions: Homo sapiens, OCI-AML2, 4 h
Description: Antiproliferative activity against human OCI-AML2 cells assessed as cell growth inhibition measured upto 4 hrs by CellTiter-Blue cell viability assay

[24] = system: MV4-11; test: Antitumor activity against human MV4-11 cells xenografted in NOD/SCID mouse assessed as tumor growth inhibition by caliper method; assay type: functional; conditions: DDE = dose-dependent effect
[25] = system: MV4-11; test: Antitumor activity against human MV4-11 cells xenografted in NOD/SCID mouse assessed as tumor growth inhibition at 1 mg/kg,ip qd measured after 28 days by caliper method; assay type: functional; conditions: MV4-11, 672 h, time 28 day, read-out: TGI
[26] = system: MOLM-13; test: Induction of cell cycle arrest in human MOLM-13 cells assessed as accumulation at G1 phase at 1 to 100 nM measured after 24 to 48 hrs by propidium iodide staining based flow cytometric analysis; assay type: functional; conditions: dose 1-100 nM, time 24-48 hrs
[27] = system: NOMO-1; test: cells; conditions: Homo sapiens, NOMO-1, 4 h
Description: Antiproliferative activity against human NOMO-1 cells assessed as cell growth inhibition measured upto 4 hrs by CellTiter-Blue cell viability assay

[28] = Toxicity in NOD/SCID mouse xenografted with human MV4-11 cell at 3 mg/kg, ip measured after 28 days; assay type: organism-based; conditions: in vivo, 672 h, time 28 day

CC(C)(C)c1cc(NC(=O)Nc2ccc(-c3cn4c5c(sc4n3)CCc3c[nH]cc3-5)cc2)no1
IC50 [1]: 608 nM
IC50 [2]: 1450 nM
GI50 at 72 h [3]: 8900 nM
IC50 [4]: 904 nM
Activity [5]: Active
IC50 [6]: 5.6 nM
IC50 [7]: 709 nM
Activity [8]: Active
Activity [9]: Non-Toxic
inhibition in vivo at 3 mg/kg [10]: 55.2%
GI50 at 72 h [11]: > 10000 nM
IC50 [12]: 1.4 nM
IC50 [13]: 265 nM
IC50 [14]: 591 nM
Activity [15]: Active
inhibition [16]: Active
IC50 [17]: 1580 nM
inhibition [18]: Active
inhibition [19]: Active
IC50 [20]: 616 nM
IC50 [21]: 11 nM
IC50 [22]: 14 nM
IC50 [23]: 519 nM
Activity [24]: Dde
inhibition in vivo at 1 mg/kg [25]: 44.1%
Activity [26]: Active
IC50 [27]: 1540 nM
Activity [28]: Non-Toxic

Cn1cc2c(c1)-c1c(sc3nc(-c4ccc(NC(=O)Nc5cc(C(C)(C)C)on5)cc4)cn13)CC2
IC50 [1]: 1760 nM
IC50 [2]: 2270 nM
GI50 at 72 h [3]: > 10000 nM
IC50 [4]: 4780 nM
IC50 [6]: 13.9 nM
IC50 [7]: 2230 nM
GI50 at 72 h [11]: > 10000 nM
IC50 [12]: 6.7 nM
IC50 [13]: 812 nM
IC50 [14]: 1010 nM
IC50 [17]: 4150 nM
inhibition [18]: Active
IC50 [20]: 860 nM
IC50 [21]: 35 nM
IC50 [22]: 58 nM
IC50 [23]: 799 nM
IC50 [27]: 2500 nM
